Target: HLA-A*02:01 (Homo sapiens, UniProt P04439, D140Y/D185E/D98H/E176V/E277Q/G131W/G231S/I119V/I121R/I166T/I218V/L300P/L318F/N151K/N90K/P208A/P217A/Q86G/Q94H/R138H/R169H/T345S)
Assay: IMMUNE on-yeast peptide competition against biotinylated indicator peptide
Format: binding
Conditions: yeast-displayed HLA, 0.5 µM biotinylated indicator peptide (Bio-KLT), 20-fold more concentrated test peptide, overnight to equilibrium, flow cytometry
Description: To construct plasmids driving the expression of non-covalent HLA-I heterodimers, the commercially available backbone vector pRS315 was modified. Briefly, the entire expression cassette containing genes encoding the Aga2 leader sequence, the ectodomain of a particular HLA-I heavy chain allele (A*02:01 or A*11:01 or B*35:01 or C*12:03), the Aga2p yeast native protein subunit, an HA epitope tag, and the MFα terminator was cloned to the downstream of the GAL10 promoter in pRS315, so that the expressed HLA-I heavy chain ectodomain was fused to the N-terminus of Aga2p for yeast surface display. […]
A sufficient amount of galactose-induced yeast cells was collected by centrifugation and labeled by primary antibodies in PBS + 0.5% bovine serum albumin (BSA) for 1 h on ice. […] FL1 and FL4 fluorescence channels were selected for Alexa Fluor 488 and Alexa Fluor 647, respectively, according to the fluorophore selected at the secondary labeling step as mentioned above. […]
To design indicator peptides appropriate for evaluation of HLA peptide binding on the surface of yeast cells and for downstream competitive assay development, the reported epitope repertoire for each aforementioned HLA allele from the Immune Epitope Database was carefully analyzed. […]

binding to A*02:01 (IMMUNE): bound
Sequence: RLHRIIPKI [test peptide from SSX1 (printed SSXI), pMHC target identified through PS-TRACT]

From PMC12351953, “SCAN-ACT: adoptive T cell therapy target discovery through single-cell transcriptomics” (Genome Medicine, 2025)
